According to patent publication US20090305886A1, “Pesticidal Mixtures” (BASF SE, priority 2006, published 2009):

Assays:
Type in all cases: in vivo
[1] = system: Mediterranean Fruitfly (Ceratitis capitata); test: Mediterranean Fruitfly (Ceratitis capitata) egg microtiterplate test
Experimental: Mediterranean Fruitfly (Ceratitis capitata)
(§1) The active compounds are formulated in 1:3 DMSO:water. 50 to 80 eggs are placed into microtiterplates filled with 0.5% agar-agar and 14% diet in water. The eggs are sprayed with 5 μl of the test solution, the plates are sealed with pierced foils and kept at 27-29° C. and 75-85% humidity under fluorescent light for 6 days. Mortality is assessed on the basis of the agility of the hatched larvae. Tests are replicated 2 times.
(§2) The presence of a synergistic effect in terms of percent control, between the two mixing partners (X and Y) is calculated using the Colby equation (Colby, S. R., 1967, Calculating Synergistic and Antagonistic Responses in Herbicide Combinations, Weeds, 15, 20-22):
(§3) When the observed combined control effect is greater than the expected combined control effect (E), then the combined effect is synergistic.

[2] = system: Boll Weevil (Anthonomus grandis); test: Boll Weevil (Anthonomus grandis) egg microtiterplate test
Experimental: Boll Weevil (Anthonomus grandis)
The active compounds are formulated in 1:3 DMSO:water. 10 to 15 eggs are placed into microtiterplates filled with 2% agar-agar in water and 300 ppm formaline. The eggs are sprayed with 20 μl of the test solution, the plates are sealed with pierced foils and kept at 24-26° C. and 75-85% humidity with a day/night cycle for 3 to 5 days. Mortality is assessed on the basis of the remaining unhatched eggs or larvae on the agar surface and/or quantity and depth of the digging channels caused by the hatched larvae. Tests are replicated 2 times.
as §2, §3

[3] = system: Vetch Aphid (Megoura viciae); test: Vetch Aphid (Megoura viciae) leaf disk microtiterplate test
Experimental: Vetch Aphid (Megoura viciae)
The active compounds are formulated in 1:3 DMSO:water. Bean leaf disks are placed into microtiterplates filled with 0.8% agar-agar and 2.5 ppm OPUS™. The leaf disks are sprayed with 2.5 μl of the test solution and 5 to 8 adult aphids are placed into the microtiterplates which are then closed and kept at 22-24° C. and 35-45% under fluorescent light for 6 days. Mortality is assessed on the basis of vital, reproduced aphids. Tests are replicated 2 times.
as §2, §3

[4] = system: Tobacco Budworm (Heliothis virescens); test: Tobacco Budworm (Heliothis virescens) test protocol no. II
Experimental: Tobacco Budworm (Heliothis virescens)—Test Protocol no. II
as §1, with “DMSO:water. 15” for “DMSO:water. 50”, “to 25” for “to 80”, “with diet.” for “with 0.5% agar-agar and 14% diet in water.”, “with 10” for “with 5”, “agility and of comparative feeding” for “agility”
as §2, §3

[5] = 0 + 0.1 ppm (compound I-1 alone)
[6] = 0 + 100 ppm (compound I-1 alone)
[7] = 0 + 0.3 ppm (compound I-1 alone)

Q: Which results are given for `CC(C)N1C(=O)N(c2ccccc2)CS/C1=N\C(C)(C)C` [buprofezine]?
A: Average Control % ([1]; 3 + 0 ppm (buprofezine alone)): 0%; Average Control % ([2]; 10 + 0 ppm (buprofezine alone)): 0%

Q: `N#CC(C#N)(CCC(F)(F)F)CC(F)(F)C(F)(F)C(F)(F)C(F)F` [compound I-1, 2-(2,2,3,3,4,4,5,5-octafluoro-pentyl)-2-(3,3,3-trifluoro-propyl)-malononitrile] was tested. Which “Average Control %” value [3, 5] did it give?
A: 0%

Q: What about the “Average Control %” value [3, 6] of the same compound?
A: 0%

Q: And the “Average Control %” value [1, 5]?
A: 0%

Q: And the “Average Control %” value ([1]; 0 + 30 ppm (compound I-1 alone))?
A: 0%

Q: And the “Average Control %” value [1, 6]?
A: 0%

Q: And the “Average Control %” value [4, 7]?
A: 0%

Q: And the “Average Control %” value [2, 5]?
A: 0%

Q: And the “Average Control %” value [2, 7]?
A: 0%

Q: What about the “Average Control %” value ([2]; 0 + 3 ppm (compound I-1 alone)) of the same compound?
A: 0%

Q: `CC(C)c1cc(Oc2ccccc2)cc(C(C)C)c1NC(=S)NC(C)(C)C` [diafenthiuron] was tested. Which “Average Control %” value ([4]; 300 + 0 ppm (diafenthiuron alone)) did it give?
A: 0%

Q: How did the “Average Control %” value ([3]; 3 + 0 ppm (fipronil alone)) turn out when `N#Cc1nn(-c2c(Cl)cc(C(F)(F)F)cc2Cl)c(N)c1[S+]([O-])C(F)(F)F` (stereo not drawn) [fipronil] was run?
A: 50%

Q: And the “Average Control %” value ([1]; 1 + 0 ppm (fipronil alone))?
A: 0%

Q: What about the “Average Control %” value ([2]; 1 + 0 ppm (fipronil alone)) of the same compound?
A: 0%

Q: For `O=[N+]([O-])NC1=NCCN1Cc1ccc(Cl)nc1` [imidacloprid], which “Average Control %” value ([2]; 3 + 0 ppm (imidacloprid alone)) is on record?
A: 0%

Q: Which “Average Control %” value ([3]; 300 + 0 ppm (spinosad alone)) does the source give for spinosad here?
A: 0%

Q: What about the “Average Control %” value ([1]; 0.3 + 0 ppm (spinosad alone)) of the same compound?
A: 0%
